In PubChem BioAssay (NCI):
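Cultured in 96-well plates, cells were exposed to test compound for 48 hours across five concentrations. GI50: concentration for 50% inhibition of growth. TGI: concentration producing complete growth inhibition.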

Tests used:
Assay in all cases: DTP human tumour cell line panel, 48 h
U251 CNS = test system: U251 CNS
MCF7 breast = test system: MCF7 breast
CAKI-1 renal = test system: CAKI-1 renal
SK-MEL-28 melanoma = test system: SK-MEL-28 melanoma
NCI-H23 lung = test system: NCI-H23 lung
K-562 leukemia = test system: K-562 leukemia
NCI-H460 lung = test system: NCI-H460 lung
OVCAR-3 ovarian = test system: OVCAR-3 ovarian
SF-295 CNS = test system: SF-295 CNS
OVCAR-8 ovarian = test system: OVCAR-8 ovarian
BT-549 breast = test system: BT-549 breast
SF-539 CNS = test system: SF-539 CNS
HT29 colon = test system: HT29 colon
EKVX NSCLC = test system: EKVX NSCLC
HCT-15 colon = test system: HCT-15 colon
M14 melanoma = test system: M14 melanoma
SK-MEL-5 melanoma = test system: SK-MEL-5 melanoma
TK-10 renal = test system: TK-10 renal
RXF 393 renal = test system: RXF 393 renal
T-47D breast = test system: T-47D breast
SK-MEL-2 melanoma = test system: SK-MEL-2 melanoma
HOP-92 NSCLC = test system: HOP-92 NSCLC
SNB-19 CNS = test system: SNB-19 CNS
OVCAR-5 ovarian = test system: OVCAR-5 ovarian
COLO 205 colon = test system: COLO 205 colon
MDA-MB-231 breast = test system: MDA-MB-231 breast
NCI-H226 lung = test system: NCI-H226 lung
786-0 renal = test system: 786-0 renal
SR leukemia = test system: SR leukemia
MALME-3M melanoma = test system: MALME-3M melanoma
IGROV1 ovarian = test system: IGROV1 ovarian
RPMI-8226 leukemia = test system: RPMI-8226 leukemia
UACC-257 melanoma = test system: UACC-257 melanoma
HCC-2998 colon = test system: HCC-2998 colon
SF-268 CNS = test system: SF-268 CNS
DU-145 prostate = test system: DU-145 prostate
CCRF-CEM leukemia = test system: CCRF-CEM leukemia
A549 NSCLC = test system: A549 NSCLC
LOX IMVI melanoma = test system: LOX IMVI melanoma
NCI/ADR-RES ovarian = test system: NCI/ADR-RES ovarian
MOLT-4 leukemia = test system: MOLT-4 leukemia
SK-OV-3 ovarian = test system: SK-OV-3 ovarian
PC-3 prostate = test system: PC-3 prostate
HL-60(TB) leukemia = test system: HL-60(TB) leukemia
SNB-75 CNS = test system: SNB-75 CNS
NCI-H522 lung = test system: NCI-H522 lung
ACHN renal = test system: ACHN renal
UACC-62 melanoma = test system: UACC-62 melanoma
HS 578T breast = test system: HS 578T breast
SW-620 colon = test system: SW-620 colon
HOP-62 NSCLC = test system: HOP-62 NSCLC
A498 renal = test system: A498 renal
HCT-116 colon = test system: HCT-116 colon
SN12C renal = test system: SN12C renal
UO-31 renal = test system: UO-31 renal
OVCAR-4 ovarian = test system: OVCAR-4 ovarian
KM12 colon = test system: KM12 colon
MDA-MB-435 = test system: MDA-MB-435

Q: What does the source list for Cc1ccc2c(c1)c1nc3cc(C)c(C)cc3nc1n2CCN(C)C?
A: GI50 (U251 CNS): 2.3 µM; TGI (U251 CNS): 8.85 µM; GI50 (MCF7 breast): 2.91 µM; TGI (MCF7 breast): 9.7 µM; GI50 (CAKI-1 renal): 1.33 µM; TGI (CAKI-1 renal): 4.46 µM; GI50 (SK-MEL-28 melanoma): 2.55 µM; TGI (SK-MEL-28 melanoma): 5.46 µM; GI50 (NCI-H23 lung): 2.04 µM; TGI (NCI-H23 lung): 5.9 µM; GI50 (K-562 leukemia): 2.6 µM; TGI (K-562 leukemia): 50.3 µM; GI50 (NCI-H460 lung): 2.69 µM; TGI (NCI-H460 lung): 9.25 µM; GI50 (OVCAR-3 ovarian): 2.37 µM; TGI (OVCAR-3 ovarian): 6.59 µM; GI50 (SF-295 CNS): 2.37 µM; TGI (SF-295 CNS): 6.62 µM; GI50 (OVCAR-8 ovarian): 1.73 µM; TGI (OVCAR-8 ovarian): 8.29 µM; GI50 (BT-549 breast): 2.46 µM; TGI (BT-549 breast): 9.05 µM; GI50 (SF-539 CNS): 2.15 µM; TGI (SF-539 CNS): 6.13 µM; GI50 (HT29 colon): 1.23 µM; TGI (HT29 colon): 6.54 µM; GI50 (EKVX NSCLC): 2.95 µM; TGI (EKVX NSCLC): 11.4 µM; GI50 (HCT-15 colon): 1.91 µM; TGI (HCT-15 colon): 7.75 µM; GI50 (M14 melanoma): 1.78 µM; TGI (M14 melanoma): 3.92 µM; GI50 (SK-MEL-5 melanoma): 1.77 µM; TGI (SK-MEL-5 melanoma): 3.18 µM; GI50 (TK-10 renal): 2.11 µM; TGI (TK-10 renal): 7.94 µM; GI50 (RXF 393 renal): 1.32 µM; TGI (RXF 393 renal): 3.4 µM; GI50 (T-47D breast): 3.34 µM; TGI (T-47D breast): 17.7 µM; GI50 (SK-MEL-2 melanoma): 2.15 µM; TGI (SK-MEL-2 melanoma): 4.87 µM; GI50 (HOP-92 NSCLC): 1.09 µM; TGI (HOP-92 NSCLC): 4.42 µM; GI50 (SNB-19 CNS): 2.5 µM; TGI (SNB-19 CNS): 9.88 µM; GI50 (OVCAR-5 ovarian): 2.4 µM; TGI (OVCAR-5 ovarian): 7.65 µM; GI50 (COLO 205 colon): 1.24 µM; TGI (COLO 205 colon): 4.6 µM; GI50 (MDA-MB-231 breast): 2.11 µM; TGI (MDA-MB-231 breast): 8.5 µM; GI50 (NCI-H226 lung): 1.86 µM; TGI (NCI-H226 lung): 4.69 µM; GI50 (786-0 renal): 2.56 µM; TGI (786-0 renal): 10.8 µM; GI50 (SR leukemia): 1.06 µM; TGI (SR leukemia): 14.2 µM; GI50 (MALME-3M melanoma): 1.73 µM; TGI (MALME-3M melanoma): 3.76 µM; GI50 (IGROV1 ovarian): 1.93 µM; TGI (IGROV1 ovarian): 4.77 µM; GI50 (RPMI-8226 leukemia): 2.06 µM; TGI (RPMI-8226 leukemia): 5.2 µM; GI50 (UACC-257 melanoma): 2.2 µM; TGI (UACC-257 melanoma): 5.48 µM; GI50 (HCC-2998 colon): 1.79 µM; TGI (HCC-2998 colon): 3.98 µM; GI50 (SF-268 CNS): 2.51 µM; TGI (SF-268 CNS): 7.65 µM; GI50 (DU-145 prostate): 2.9 µM; TGI (DU-145 prostate): 10.6 µM; GI50 (CCRF-CEM leukemia): 2.05 µM; TGI (CCRF-CEM leukemia): 10.6 µM; GI50 (A549 NSCLC): 1.79 µM; TGI (A549 NSCLC): 4.72 µM; GI50 (LOX IMVI melanoma): 1.45 µM; TGI (LOX IMVI melanoma): 4.45 µM; GI50 (NCI/ADR-RES ovarian): 1.15 µM; TGI (NCI/ADR-RES ovarian): 5.42 µM; GI50 (MOLT-4 leukemia): 1.73 µM; TGI (MOLT-4 leukemia): 16.3 µM; GI50 (SK-OV-3 ovarian): 2.61 µM; TGI (SK-OV-3 ovarian): 8.52 µM; GI50 (PC-3 prostate): 2.32 µM; TGI (PC-3 prostate): 6.82 µM; GI50 (HL-60(TB) leukemia): 2.95 µM; TGI (HL-60(TB) leukemia): 9.65 µM; GI50 (SNB-75 CNS): 1.5 µM; TGI (SNB-75 CNS): 6.41 µM; GI50 (NCI-H522 lung): 1.54 µM; TGI (NCI-H522 lung): 5.58 µM; GI50 (ACHN renal): 0.821 µM; TGI (ACHN renal): 5.92 µM; GI50 (UACC-62 melanoma): 1.59 µM; TGI (UACC-62 melanoma): 3.57 µM; GI50 (HS 578T breast): 2.74 µM; TGI (HS 578T breast): 8.04 µM; GI50 (SW-620 colon): 1.13 µM; TGI (SW-620 colon): 5.46 µM; GI50 (HOP-62 NSCLC): 1.78 µM; TGI (HOP-62 NSCLC): 7.26 µM; GI50 (A498 renal): 1.77 µM; TGI (A498 renal): 3.34 µM; GI50 (HCT-116 colon): 0.63 µM; TGI (HCT-116 colon): 10.1 µM; GI50 (SN12C renal): 1.44 µM; TGI (SN12C renal): 8.77 µM; GI50 (UO-31 renal): 1.07 µM; TGI (UO-31 renal): 3.48 µM; GI50 (OVCAR-4 ovarian): 3.43 µM; TGI (OVCAR-4 ovarian): 19.6 µM; GI50 (KM12 colon): 2.67 µM; TGI (KM12 colon): 10.5 µM; GI50 (MDA-MB-435): 1.98 µM; TGI (MDA-MB-435): 4.42 µM
